Laboratory results taken from patent US5591438A, “Natamycin recovery” (Bio-Technical Resources L.P., priority 1994, dated 1997).
≈ marks a conversion by molar mass, not a printed value.

Assays:
Type in all cases: physicochemical
physchem [1] = conditions: methanol/cacl2, organic solvent or mixture, Solubility of Natamycin in Methanol/CaCl2 Extractant
Description: To precipitate a high percentage of the natamycin, the water content of the extraction liquor should be increased to at least 50% by volume. Table 3 indicates the solubility of natamycin in a methanol/water/calcium chloride solution as a function of water content.
Solubility of Natamycin in Methanol/CaCl2 *
Extractant at Various Water Concentrations

[2] = Natamycin methyl ester formation in methanol (stability of natamycin in acidified methanol)
Experimental: Formation of natamycin methyl ester, an undesired by-product, depends on the pH, the natamycin-methanol contact time, and the temperature (see Table 1). It is important that this step be carried out at a temperature of about 0°-25° C., since formation of natamycin methyl ester and other undesirable by-products is minimized. The higher the temperature or the longer the contact time, the greater the by-product production at a given pH. To avoid excessive natamycin methyl ester formation at 15°-25° C., short contact times, i.e., 0.5 hr or less, should be used. At about […], the extraction time should not exceed about 1.5 hr. An extraction temperature of about 0°-15° C. is preferred.
Natamycin Methyl Ester Formation in Methanol

[3] = Ester formation in methanol with 40 g/L CaCl2 (stability of natamycin); conditions: for Methyl Ester (% of product) / Natamycin (concentration in methanol with CaCl2): methanol with 40 g/L CaCl2
Experimental: This process can be run at pH 2-9, preferably at pH 6-8. If the pH is low, shorter extraction times should be used because acidic conditions promote natamycin methyl ester formation. (See Table 4) If the pH is above 6, ester formation is slower. Any reasonable temperature may be used (i.e. 20°-30° C.).
Ester Formation in Methanol with 40 g/L CaCl2

physchem [4] = assay: physchem
Description: Since water content of the extraction medium depends on the amount of water in the feed stream, it is desirable to remove as much water as possible from the feed stream before Step 1. If the feed stream contains about 70% by volume water, about three times as much methanol is required than when starting with a substantially dry feed stream. If the feed stream contains about 40% by volume water, about twice as much methanol is required.
The pH depends to some extent on the water content of the extraction medium and the yield desired. To obtain a precipitation yield of about 90% or more, the natamycin concentration in the extraction medium should be about 40 g/L. In the absence of water this requires a pH of about 4.5. At about 30% water/70% methanol (by volume) this requires a pH of about 2.5 (Table 2).
Solubility of Natamycin in Methanol and Methanol/Water

Compound: C[C@@H]1C/C=C/C=C/C=C/C=C/[C@H](O[C@@H]2O[C@H](C)[C@@H](O)[C@H](N)[C@@H]2O)C[C@@H]2O[C@](O)(C[C@@H](O)C[C@H]3O[C@@H]3/C=C/C(=O)O1)C[C@H](O)[C@H]2C(=O)O [Natamycin, natamycin]
- solubility (physchem [1]): 91 mg/mL (≈ 137 mM)
- Methyl Ester (% by weight of product) ([2]; 4 °C, pH 2.4, 0 hr): 0.4 % by weight of product
- Natamycin (concentration in methanol) ([2]; 4 °C, pH 2.4, 0 hr): 42 g/L
- Methyl Ester (% by weight of product) ([2]; 4 °C, pH 2.4, 2 hr): 1.3 % by weight of product
- Natamycin (concentration in methanol) ([2]; 4 °C, pH 2.4, 2 hr): 42 g/L
- Methyl Ester (% by weight of product) ([2]; 4 °C, pH 2.4, 8.5 hr): 2.7 % by weight of product
- Natamycin (concentration in methanol) ([2]; 4 °C, pH 2.4, 8.5 hr): 39 g/L
- Methyl Ester (% by weight of product) ([2]; 4 °C, pH 2.4, 19 hr): 5.2 % by weight of product
- Natamycin (concentration in methanol) ([2]; 4 °C, pH 2.4, 19 hr): 37 g/L
- Methyl Ester (% by weight of product) ([2]; 23 °C, pH 2.4, 0 hr): 0 % by weight of product
- Natamycin (concentration in methanol) ([2]; 23 °C, pH 2.4, 0 hr): 44 g/L
- Methyl Ester (% by weight of product) ([2]; 23 °C, pH 2.4, 1 hr): 3.9 % by weight of product
- Natamycin (concentration in methanol) ([2]; 23 °C, pH 2.4, 1 hr): 42 g/L
- Methyl Ester (% by weight of product) ([2]; 23 °C, pH 2.4, 2 hr): 7.3 % by weight of product
- Natamycin (concentration in methanol) ([2]; 23 °C, pH 2.4, 2 hr): 41 g/L
- Methyl Ester (% by weight of product) ([2]; 23 °C, pH 2.4, 3 hr): 9.7 % by weight of product
- Natamycin (concentration in methanol) ([2]; 23 °C, pH 2.4, 3 hr): 38 g/L
- Methyl Ester (% by weight of product) ([2]; 23 °C, pH 3.2, 0 hr): 0 % by weight of product
- Natamycin (concentration in methanol) ([2]; 23 °C, pH 3.2, 0 hr): 38 g/L
- Methyl Ester (% by weight of product) ([2]; 23 °C, pH 3.2, 1 hr): 2.3 % by weight of product
- Natamycin (concentration in methanol) ([2]; 23 °C, pH 3.2, 1 hr): 38 g/L
- Methyl Ester (% by weight of product) ([2]; 23 °C, pH 3.2, 2 hr): 3.9 % by weight of product
- Natamycin (concentration in methanol) ([2]; 23 °C, pH 3.2, 2 hr): 37 g/L
- Methyl Ester (% by weight of product) ([2]; 23 °C, pH 3.2, 4 hr): 7.4 % by weight of product
- Natamycin (concentration in methanol) ([2]; 23 °C, pH 3.2, 4 hr): 34 g/L
- Methyl Ester (% by weight of product) ([2]; 23 °C, pH 3.2, 6 hr): 9.2 % by weight of product
- Natamycin (concentration in methanol) ([2]; 23 °C, pH 3.2, 6 hr): 32 g/L
- Methyl Ester (% by weight of product) ([2]; 23 °C, pH 3.2, 16 hr): 14 % by weight of product
- Natamycin (concentration in methanol) ([2]; 23 °C, pH 3.2, 16 hr): 23 g/L
- Methyl Ester (% by weight of product) ([2]; 23 °C, pH 4.0, 0 hr): 0 % by weight of product
- Natamycin (concentration in methanol) ([2]; 23 °C, pH 4.0, 0 hr): 41 g/L
- Methyl Ester (% by weight of product) ([2]; 23 °C, pH 4.0, 2 hr): 2.3 % by weight of product
- Natamycin (concentration in methanol) ([2]; 23 °C, pH 4.0, 2 hr): 40 g/L
- Methyl Ester (% by weight of product) ([2]; 23 °C, pH 4.0, 4 hr): 3.7 % by weight of product
- Natamycin (concentration in methanol) ([2]; 23 °C, pH 4.0, 4 hr): 39 g/L
- Methyl Ester (% of product) ([3]; 5 °C, pH 4.4, 0 hr): 0 % of product
- Natamycin (concentration in methanol with CaCl2) ([3]; 5 °C, pH 4.4, 0 hr): 60 g/L
- Methyl Ester (% of product) ([3]; 5 °C, pH 4.4, 8 hr): 0.5 % of product
- Natamycin (concentration in methanol with CaCl2) ([3]; 5 °C, pH 4.4, 8 hr): 60 g/L
- Methyl Ester (% of product) ([3]; 23 °C, pH 4.4, 0 hr): 0 % of product
- Natamycin (concentration in methanol with CaCl2) ([3]; 23 °C, pH 4.4, 0 hr): 72 g/L
- Methyl Ester (% of product) ([3]; 23 °C, pH 4.4, 6 hr): 5.0 % of product
- Natamycin (concentration in methanol with CaCl2) ([3]; 23 °C, pH 4.4, 6 hr): 67 g/L
- Methyl Ester (% of product) ([3]; 23 °C, pH 5.3, 0 hr): 0 % of product
- Natamycin (concentration in methanol with CaCl2) ([3]; 23 °C, pH 5.3, 0 hr): 51 g/L
- Methyl Ester (% of product) ([3]; 23 °C, pH 5.3, 20 hr): 2.4 % of product
- Natamycin (concentration in methanol with CaCl2) ([3]; 23 °C, pH 5.3, 20 hr): 48 g/L
- Methyl Ester (% of product) ([3]; 23 °C, pH 6.1, 0 hr): 0 % of product
- Natamycin (concentration in methanol with CaCl2) ([3]; 23 °C, pH 6.1, 0 hr): 51 g/L
- Methyl Ester (% of product) ([3]; 23 °C, pH 6.1, 20 hr): 1.1 % of product
- Natamycin (concentration in methanol with CaCl2) ([3]; 23 °C, pH 6.1, 20 hr): 49 g/L
- natamycin methyl ester formation ([3]; methanol/CaCl2, pH above 6): slower
- solubility in methanol (physchem [4]): excellent solubility
- solubility in the extraction medium after acid addition (physchem [4]): highly soluble
- solubility of natamycin in the extraction medium (physchem [4]): decreases as the water increases
- solubility (physchem [4]; methanol, pH 2, organic solvent or mixture): 94 mg/mL (≈ 141 mM)
- solubility (physchem [4]; methanol, pH 3.8, organic solvent or mixture): 78 mg/mL (≈ 117 mM)
- solubility (physchem [4]; methanol, pH 4.5, organic solvent or mixture): 50 mg/mL (≈ 75.1 mM)
- solubility (physchem [4]; methanol, pH 7, organic solvent or mixture): 6 mg/mL (≈ 9.01 mM)
- solubility (physchem [4]; methanol/water, pH 2.4, organic solvent or mixture): 55 mg/mL (≈ 82.6 mM)
- solubility (physchem [4]; methanol/water, pH 3.3, organic solvent or mixture): 18 mg/mL (≈ 27 mM)
- solubility (physchem [4]; methanol/water, pH 7, organic solvent or mixture): 4 mg/mL (≈ 6.01 mM)
